Experimental findings from US20210269824A1, “VIRAL VECTOR FOR TREATING AUTOIMMUNE DISEASE AND DIABETES AND CONSTRUCTION METHOD AND APPLICATION THEREOF” (Guangzhou Huazhen Pharmaceutical Co., Ltd., priority 2017, published 2021) are described below.

The test system of the experiment is peripheral blood CD4 T-cells of patients with type 1 diabetes. In words: Differentiation of peripheral blood CD4 T-cells (Th1, Th2, Th17, Treg) after in vitro treatment, flow cytometry. The class given is cell-based, human. The following applies: 100 μM, 24 h in vitro, lymphocytes of type 1 diabetes patients. The procedure:
(1) 5 ml peripheral blood was extracted from patients and normal humans separately, diluted twice with PBS of pH 7.2, and then mixed with lymphocyte separation solution Lymphoprep (Axis-Shield, Norway), centrifuged at 3500 rpm for 20 min, then the lymphocytes were taken out and cultured in RPMI1640 medium (purchased from Gibco) to obtain the cultured lymphocytes. The above cultured lymphocytes were treated in vitro with DHA (docosahexaenoic acid) at a final concentration of 100 μM, EPA (eicosapentaenoic acid) at a final concentration of 100 μM, and AA (arachidonic acid) at a final concentration of 100 μM for 24 h, respectively. After treating, changes in intracellular cytokines of CD4 T-cells in the above lymphocytes were detected. (The above DHA, EPA and AA are all purchased from Sigma).
(2) labeling of intracellular cytokines of CD4 T-cells: The lymphocytes (number up to 1×10^5) from patients and normal humans in the above steps were placed to different marked tubes. Labeled fluorescent monoclonal antibodies CD3 (0.1 μg) and CD8 (0.1 μg) were added into each tube. Then 1 ml paraformaldehyde having a concentration of 4% by weight was added into each tube, mixed well and incubated at room temperature (20° C.-30° C.) for 20 min. 1 ml intraprep permeabilization reagent, i.e. 0.5% saponin, was added, incubated at room temperature (20° C.-30° C.) for 30 min, then centrifuged for 5 min at 300 g, 4° C. to obtain a supernatant and a precipitate. The supernatant was removed, and 80 μl 0.5% saponin was added to re-suspend the precipitate to obtain suspensions. The obtained suspensions were labeled respectively with IFN-γ fluorescent monoclonal antibody (0.1 μg), IL-17 fluorescent monoclonal antibody (0.1 μg), IL-4 fluorescent monoclonal antibody (0.1 μg), and Foxp3 fluorescent monoclonal antibody (0.1 μg), and incubated in dark place at 4° C. for 1 h (for the suspension labeled with Foxp3 fluorescent monoclonal antibody, incubation and rupture took 8 h). The labeled cells were washed three times with 0.5% saponin, centrifuged for 5 min at 300 g, 4° C. to obtain a supernatant and a precipitate. The supernatant was removed, and the precipitate was fixed with paraformaldehyde having a mass concentration of 1%. After 24 h, percentages of Th1, Th2, Th17 and Treg cells were analyzed with a flow cytometer Accuri-C6. The antibodies and instruments used in the above steps were all purchased from BD Bioscience.
The CON in FIG. 2 represents a control group, i.e. the lymphocytes of peripheral blood from normal humans not treated with DHA, EPA or AA. The CON in FIG. 3 represents a control group, i.e. the lymphocytes of peripheral blood from patients not treated with DHA, EPA, or AA. In FIG. 2, figures A, B, C, D, and E show percentages of Th1, Th2, Th1/Th2, Th17 and Treg cells in peripheral blood CD4 T-cells of normal subjects, respectively, and figures F, G, H, I and J show percentages of Th1, Th2, Th1/Th2, Th17 and Treg cells in peripheral blood CD4 T-cells of patients, respectively. In FIG. 3, figures A, B, C, and D show percentages of transcription factors T-bet, GATA3, RORγT, and Foxp3 in peripheral blood CD4 T-cells of patients, respectively. As shown in FIGS. 2-3, in peripheral blood CD4 T-cells of patients with type 1 diabetes treated with DHA, EPA and AA respectively, the percentages of Th1 and Th17 cells decreased, and the percentages of Th2 and Treg cells increased, and the ratio of Th1/Th2 and the ratio of T17/Treg were rebalanced.
(In flow cytometry, cells or beads pass a laser one at a time.)

`CCCCC/C=C\C/C=C\C/C=C\C/C=C\CCCC(=O)O` [AA, arachidonic acid]: the “ratio of T17/Treg” value is listed as “rebalanced” and the “ratio of Th1/Th2” value is “rebalanced”. Under “vs untreated”, the “percentage of Th1 cells” value is on record as “decreased”, the “percentage of Th2 cells” value is “increased”, the “percentage of Th17 cells” value was “decreased” and the “percentage of Treg cells” value is recorded as “increased”.
